What was measured:
NCI-H522 = test: cells; format: functional, cell-based, Homo sapiens; details: Homo sapiens, NCI-H522
Description: SANGER: Inhibition of human NCI-H522 cell growth in a cell viability assay.

NCI-H2141 = test: cells; format: functional, cell-based, Homo sapiens; details: Homo sapiens, NCI-H2141
Description: SANGER: Inhibition of human NCI-H2141 cell growth in a cell viability assay.

MKN-45 = test: cells; format: functional, cell-based, Homo sapiens; details: Homo sapiens, MKN-45
Description: SANGER: Inhibition of human MKN45 cell growth in a cell viability assay.

SW626 = test: cells; format: functional, cell-based, Homo sapiens; details: Homo sapiens, SW626
Description: SANGER: Inhibition of human SW626 cell growth in a cell viability assay.

NCI-H596 = test: cells; format: functional, cell-based, Homo sapiens; details: Homo sapiens, NCI-H596
Description: SANGER: Inhibition of human NCI-H596 cell growth in a cell viability assay.

NCI-H810 = test: cells; format: functional, cell-based, Homo sapiens; details: Homo sapiens, NCI-H810
Description: SANGER: Inhibition of human NCI-H810 cell growth in a cell viability assay.

HT55 = test: cells; format: functional, cell-based, Homo sapiens; details: Homo sapiens, HT55
Description: SANGER: Inhibition of human HT55 cell growth in a cell viability assay.

SW-620 = test: cells; format: functional, cell-based, Homo sapiens; details: Homo sapiens, SW-620
Description: SANGER: Inhibition of human SW620 cell growth in a cell viability assay.

Daoy = test: cells; format: functional, cell-based, Homo sapiens; details: Homo sapiens, Daoy
Description: SANGER: Inhibition of human Daoy cell growth in a cell viability assay.

A-375 = test: cells; format: functional, cell-based, Homo sapiens; details: Homo sapiens, A-375
Description: SANGER: Inhibition of human A375 cell growth in a cell viability assay.

RERF-LC-MS = test: cells; format: functional, cell-based, Homo sapiens; details: Homo sapiens, RERF-LC-MS
Description: SANGER: Inhibition of human RERF-LC-MS cell growth in a cell viability assay.

NCI-H292 = test: cells; format: functional, cell-based, Homo sapiens; details: Homo sapiens, NCI-H292
Description: SANGER: Inhibition of human NCI-H292 cell growth in a cell viability assay.

CAKI-1 = test: cells; format: functional, cell-based, Homo sapiens; details: Homo sapiens, CAKI-1
Description: SANGER: Inhibition of human CAKI-1 cell growth in a cell viability assay.

CHP-212 = test: cells; format: functional, cell-based, Homo sapiens; details: Homo sapiens, CHP-212
Description: SANGER: Inhibition of human CHP-212 cell growth in a cell viability assay.

CAL-54 = test: cells; format: functional, cell-based, Homo sapiens; details: Homo sapiens, CAL-54
Description: SANGER: Inhibition of human CAL-54 cell growth in a cell viability assay.

LP-1 = test: cells; format: functional, cell-based, Homo sapiens; details: Homo sapiens, LP-1
Description: SANGER: Inhibition of human LP-1 cell growth in a cell viability assay.

KOSC-2 = test: cells; format: functional, cell-based, Homo sapiens; details: Homo sapiens, KOSC-2
Description: SANGER: Inhibition of human KOSC-2 cell growth in a cell viability assay.

SK-N-AS = test: cells; format: functional, cell-based, Homo sapiens; details: Homo sapiens, SK-N-AS
Description: SANGER: Inhibition of human SK-N-AS cell growth in a cell viability assay.

DoTc2-4510 = test: cells; format: functional, cell-based, Homo sapiens; details: Homo sapiens, DoTc2-4510
MEL-HO = test: cells; format: functional, cell-based, Homo sapiens; details: Homo sapiens, MEL-HO
Description: SANGER: Inhibition of human MEL-HO cell growth in a cell viability assay.

ESS-1 = test: cells; format: functional, cell-based, Homo sapiens; details: Homo sapiens, ESS-1
Description: SANGER: Inhibition of human ESS-1 cell growth in a cell viability assay.

EB2 = test: cells; format: functional, cell-based, Homo sapiens; details: Homo sapiens, EB2
Description: SANGER: Inhibition of human EB2 cell growth in a cell viability assay.

LCLC-97TM1 = test: cells; format: functional, cell-based, Homo sapiens; details: Homo sapiens, LCLC-97TM1
Description: SANGER: Inhibition of human LCLC-97TM1 cell growth in a cell viability assay.

LC4-1 = test: cells; format: functional, cell-based, Homo sapiens; details: Homo sapiens, LC4-1
Description: SANGER: Inhibition of human LC4-1 cell growth in a cell viability assay.

TALL-1 = test: cells; format: functional, cell-based, Homo sapiens; details: Homo sapiens, TALL-1
Description: SANGER: Inhibition of human TALL-1 cell growth in a cell viability assay.

EVSA-T = test: cells; format: functional, cell-based, Homo sapiens; details: Homo sapiens, EVSA-T
Description: SANGER: Inhibition of human EVSA-T cell growth in a cell viability assay.

IMR-5 = test: cells; format: functional, cell-based, Homo sapiens; details: Homo sapiens, IMR-5
Description: SANGER: Inhibition of human IMR-5 cell growth in a cell viability assay.

SK-MEL3 = test: cells; format: functional, cell-based, Homo sapiens, SK-MEL-3; details: Homo sapiens, SK-MEL3
Description: SANGER: Inhibition of human SK-MEL-3 cell growth in a cell viability assay.

HCC70 = test: cells; format: functional, cell-based, Homo sapiens; details: Homo sapiens, HCC70
Description: SANGER: Inhibition of human HCC70 cell growth in a cell viability assay.

BL-70 = test: SANGER: Inhibition of human BL-70 cell growth in a cell viability assay.; format: functional, cell-based; details: Homo sapiens, BL-70
KYSE-450 = test: cells; format: functional, cell-based, Homo sapiens; details: Homo sapiens, KYSE-450
Description: SANGER: Inhibition of human KYSE-450 cell growth in a cell viability assay.

BCPAP = test: cells; format: functional, cell-based, Homo sapiens; details: Homo sapiens, BCPAP
Description: SANGER: Inhibition of human BCPAP cell growth in a cell viability assay.

HuP-T3 = test: cells; format: functional, cell-based, Homo sapiens; details: Homo sapiens, HuP-T3
Description: SANGER: Inhibition of human HuP-T3 cell growth in a cell viability assay.

SK-MEL-28 = test: cells; format: functional, cell-based, Homo sapiens; details: Homo sapiens, SK-MEL-28
Description: SANGER: Inhibition of human SK-MEL-28 cell growth in a cell viability assay.

RPMI 8402 = test: SANGER: Inhibition of human RPMI-8402 cell growth in a cell viability assay.; format: functional, cell-based; details: Homo sapiens, RPMI 8402; read-out: IC50
SW1088 = test: cells; format: functional, cell-based, Homo sapiens; details: Homo sapiens, SW1088
Description: SANGER: Inhibition of human SW1088 cell growth in a cell viability assay.

A-427 = test: cells; format: functional, cell-based, Homo sapiens; details: Homo sapiens, A-427
Description: SANGER: Inhibition of human A427 cell growth in a cell viability assay.

A673 = test: cells; format: functional, cell-based, Homo sapiens; details: Homo sapiens, A673
Description: SANGER: Inhibition of human A673 cell growth in a cell viability assay.

YT = test: cells; format: functional, cell-based, Homo sapiens; details: Homo sapiens, YT
Description: SANGER: Inhibition of human YT cell growth in a cell viability assay.

CAL-33 = test: cells; format: functional, cell-based, Homo sapiens; details: Homo sapiens, CAL-33
Description: SANGER: Inhibition of human CAL-33 cell growth in a cell viability assay.

OAW-28 = test: cells; format: functional, cell-based, Homo sapiens; details: Homo sapiens, OAW-28
Description: SANGER: Inhibition of human OAW-28 cell growth in a cell viability assay.

SNU-C1 = test: cells; format: functional, cell-based, Homo sapiens; details: Homo sapiens, SNU-C1
Description: SANGER: Inhibition of human SNU-C1 cell growth in a cell viability assay.

8505C = test: cells; format: functional, cell-based, Homo sapiens; details: Homo sapiens, 8505C
Description: SANGER: Inhibition of human 8505C cell growth in a cell viability assay.

KYSE-520 cell line = test: cells; format: functional, cell-based, Homo sapiens; details: Homo sapiens, KYSE-520
Description: SANGER: Inhibition of human KYSE-520 cell growth in a cell viability assay.

HTC-C3 = test: cells; format: functional, cell-based, Homo sapiens; details: Homo sapiens, HTC-C3
Description: SANGER: Inhibition of human HTC-C3 cell growth in a cell viability assay.

IM-9 = test: SANGER: Inhibition of human IM-9 cell growth in a cell viability assay.; format: functional, cell-based; details: Homo sapiens, IM-9

## Oc1ccc2ccccc2c1SSc1c(O)ccc2ccccc12
NCI-H522
  IC50: > 32 µM
NCI-H2141
  IC50: > 32 µM
MKN-45
  IC50: > 32 µM
SW626
  IC50: > 32 µM
NCI-H596
  IC50: > 32 µM
NCI-H810
  IC50: > 32 µM
HT55
  IC50: > 32 µM
SW-620
  IC50: > 32 µM
Daoy
  IC50: 3.25 µM
A-375
  IC50: > 32 µM
RERF-LC-MS
  IC50: > 32 µM
NCI-H292
  IC50: > 32 µM
CAKI-1
  IC50: > 32 µM
CHP-212
  IC50: 9.1 µM
CAL-54
  IC50: > 32 µM
LP-1
  IC50: 30.5 µM
KOSC-2
  IC50: > 32 µM
SK-N-AS
  IC50: > 32 µM
DoTc2-4510
  IC50: 10.5 µM
MEL-HO
  IC50: > 32 µM
ESS-1
  IC50: > 32 µM
EB2
  IC50: 4.49 µM
LCLC-97TM1
  IC50: > 32 µM
LC4-1
  IC50: > 32 µM
TALL-1
  IC50: > 32 µM
EVSA-T
  IC50: > 32 µM
IMR-5
  IC50: > 32 µM
SK-MEL3
  IC50: > 32 µM
HCC70
  IC50: > 32 µM
BL-70
  IC50: 2.04 µM
KYSE-450
  IC50: > 32 µM
BCPAP
  IC50: > 32 µM
HuP-T3
  IC50: > 32 µM
SK-MEL-28
  IC50: > 32 µM
RPMI 8402
  IC50: 5.77 µM
SW1088
  IC50: > 32 µM
A-427
  IC50: > 32 µM
A673
  IC50: > 32 µM
YT
  IC50: 1.39 µM
CAL-33
  IC50: > 32 µM
OAW-28
  IC50: > 32 µM
SNU-C1
  IC50: > 32 µM
8505C
  IC50: 11.2 µM
KYSE-520 cell line
  IC50: > 32 µM
HTC-C3
  IC50: > 32 µM
IM-9
  IC50: 7.93 µM

## Cc1cc([N+](=O)[O-])ccc1NS(=O)(=O)c1cc(Cl)ccc1Cl
NCI-H522
  IC50: 1.4 µM
NCI-H2141
  IC50: > 32 µM
MKN-45
  IC50: 2.15 µM
SW626
  IC50: 3.12 µM
NCI-H596
  IC50: 7.95 µM
NCI-H810
  IC50: 1.25 µM
HT55
  IC50: > 32 µM
SW-620
  IC50: 3.93 µM
Daoy
  IC50: 4.14 µM
A-375
  IC50: 3.58 µM
RERF-LC-MS
  IC50: 1.49 µM
NCI-H292
  IC50: 11.3 µM
CAKI-1
  IC50: 13.2 µM
CHP-212
  IC50: 2.58 µM
CAL-54
  IC50: 5.44 µM
LP-1
  IC50: 10.6 µM
KOSC-2
  IC50: > 32 µM
SK-N-AS
  IC50: 6.53 µM
DoTc2-4510
  IC50: 1.52 µM
MEL-HO
  IC50: 6.53 µM
ESS-1
  IC50: 7.38 µM
EB2
  IC50: > 32 µM
LCLC-97TM1
  IC50: 3.18 µM
LC4-1
  IC50: 13.7 µM
TALL-1
  IC50: 6.23 µM
EVSA-T
  IC50: 11.9 µM
IMR-5
  IC50: 11.2 µM
SK-MEL3
  IC50: 4.68 µM
HCC70
  IC50: 6.62 µM
BL-70
  IC50: 5.1 µM
KYSE-450
  IC50: 6.37 µM
BCPAP
  IC50: 2.05 µM
HuP-T3
  IC50: 11.2 µM
SK-MEL-28
  IC50: 0.355 µM
RPMI 8402
  IC50: 6.85 µM
SW1088
  IC50: 12.3 µM
A-427
  IC50: 0.23 µM
A673
  IC50: 3 µM
YT
  IC50: 1.83 µM
CAL-33
  IC50: 3.56 µM
OAW-28
  IC50: 24.7 µM
SNU-C1
  IC50: > 32 µM
8505C
  IC50: 2.67 µM
KYSE-520 cell line
  IC50: 27.6 µM
HTC-C3
  IC50: 3.03 µM
IM-9
  IC50: 14.1 µM

## COc1cccc2c1C(=O)c1c(O)c3c(c(O)c1C2=O)C[C@@](O)(C(=O)CO)C[C@@H]3O[C@H]1C[C@H](N)[C@H](O)[C@H](C)O1 [DOXORUBICIN]
NCI-H522
  IC50: 0.0519 µM
NCI-H2141
  IC50: 0.574 µM
MKN-45
  IC50: 0.0815 µM
SW626
  IC50: 0.112 µM
NCI-H596
  IC50: 0.108 µM
NCI-H810
  IC50: 0.0188 µM
HT55
  IC50: > 1.02 µM
SW-620
  IC50: 0.0266 µM
Daoy
  IC50: 0.00807 µM
A-375
  IC50: 0.00917 µM
RERF-LC-MS
  IC50: 0.425 µM
NCI-H292
  IC50: 0.0438 µM
CAKI-1
  IC50: 0.375 µM
CHP-212
  IC50: 0.035 µM
CAL-54
  IC50: 0.301 µM
LP-1
  IC50: > 1.02 µM
KOSC-2
  IC50: 0.249 µM
SK-N-AS
  IC50: > 1.02 µM
DoTc2-4510
  IC50: 0.0362 µM
MEL-HO
  IC50: 0.0183 µM
ESS-1
  IC50: 0.0111 µM
EB2
  IC50: 0.0337 µM
LCLC-97TM1
  IC50: 0.0118 µM
LC4-1
  IC50: 0.241 µM
TALL-1
  IC50: > 1.02 µM
EVSA-T
  IC50: > 1.02 µM
IMR-5
  IC50: 0.0347 µM
SK-MEL3
  IC50: 0.148 µM
HCC70
  IC50: > 1.02 µM
BL-70
  IC50: 0.342 µM
KYSE-450
  IC50: 0.0447 µM
BCPAP
  IC50: 0.0525 µM
HuP-T3
  IC50: 0.166 µM
SK-MEL-28
  IC50: > 1.02 µM
RPMI 8402
  IC50: 0.0539 µM
SW1088
  IC50: > 1.02 µM
A-427
  IC50: 0.0118 µM
A673
  IC50: 0.216 µM
YT
  IC50: > 1.02 µM
CAL-33
  IC50: 0.0679 µM
OAW-28
  IC50: 0.179 µM
SNU-C1
  IC50: > 1.02 µM
8505C
  IC50: 0.0196 µM
KYSE-520 cell line
  IC50: 0.261 µM
HTC-C3
  IC50: 0.704 µM
IM-9
  IC50: 0.0514 µM

Reference: ChEMBL document CHEMBL1201861, “Genomics of Drug Sensitity in Cancer screening data, Wellcome Trust Sanger Institute”
